# Assays:
# NK cells [1] = test: NK cell degranulation (LAMP-1 staining) upon anti-NK1.1 stimulation; assay type: cell-based, mouse; conditions: PGE2 pre-treatment 16 h
# Protocol: (§1) For the isolation of mouse NK cells, the spleen was excised from mice and passed through a steel sieve. Red blood cells were lysed by incubating the cells with ammonium chloride potassium buffer for 2 min. Following filtration through a 70 μm cell strainer, CD49b^+ leukocytes were purified by immunomagnetic separation to enrich for CD49b^+ NK cells. Th cells were stained with anti-CD49b FITC, anti-CD3ε PerCP/Cy5.5, anti-CD19 PE/eF610 and CD64 PE/Cy7 for 15 min at 4° C. and NK cells, phenotypically identified as CD49b^+CD3ε^−CD19^−CD64^− cells, were FACS-sorted using a SH800 Cell Sorter. After isolation, NK cells were cultured in low doses of IL2 and IL15/IL15Ra for five days to rest the cells and generate functional NK cells.
# (§2) Murine or human NK cells or CD8^+ T cells were treated with 1-100 ng/ml synthetic PGE2 or medium as control for 16 h at 37° C. For experiments with tumor factors (TF), cells were incubated in a 1:1 mixture of complete RPMI medium with TF-containing conditioned medium from cancer cells. For the inhibitor studies, cells were first incubated with single EP receptor inhibitors (EP1-EP4) or inhibitor combinations at a concentration of 5 μM for 30 min, before adding 100 ng/ml PGE2 for 16 h at 37° C. For the RNA and ATAC sequencing approach, NK cells were only pre-treated for 1 h with PGE2 and then stimulated (as described below) for further 4 h. […]
# NK cells [2] = test: Granzyme B expression in NK cells by flow cytometry; assay type: cell-based, mouse; conditions: untreated vs PGE2-treated NK cells
# Protocol: as §1
# Murine or human NK cells or CD8^+ T cells were treated with 1-100 ng/ml synthetic PGE2 or medium as control for 16 h at 37° C. For experiments with tumor factors (TF), cells were incubated in a 1:1 mixture of complete RPMI medium with TF-containing conditioned medium from cancer cells. […]
# (§3) For flow cytometric analysis, cells were resuspended in staining buffer containing antibodies for surface molecules and incubated for 15 min. […] Intracellular staining of cytokines (including IFNγ and TNF) was performed in permeabilization buffer and cells were subsequently analyzed by flow cytometry. […]
# BRAF^V600E tumor cells = test: NK cell cytotoxicity assay (xCelligence impedance); assay type: cell-based, mouse; conditions: PGE2-treated NK cells co-cultured with tumor cells
# Protocol: Measurement of the dynamics of NK cell cytotoxicity against BRAF^V600E tumor cells over time was performed with the impedance-based technology using an xCelligence RTCA MP device (ACEA Biosciences). The xCELLigence RTCA system measures changes in impedance generated by adherence of cells to electrodes on the bottom of the wells of E-Plates and calculates a parameter called Cell Index. For the assays, tumor cells were seeded in 96-well E-plates. After tumor cells reached confluency and a maximum cell index, in vitro cultured NK cells were added in different effector-to-target ratios. Killing was measured by declining cell index values. Percentage of specific cytotoxicity was finally calculated to the index values from tumor cells alone.
# NK cells [3] = test: Cytokine release assay of mouse NK cells upon anti-NK1.1 stimulation (ELISA, multiplex); assay type: cell-based
# Protocol: as §1
# For experiments with tumor factors (TF), cells were incubated in a 1:1 mixture of complete RPMI medium with TF-containing conditioned medium from cancer cells. For the inhibitor studies, cells were first incubated with single EP receptor inhibitors (EP1-EP4) or inhibitor combinations at a concentration of 5 μM for 30 min, before adding 100 ng/ml PGE2 for 16 h at 37° C. For the RNA and ATAC sequencing approach, NK cells were only pre-treated for 1 h with PGE2 and then stimulated (as described below) for further 4 h.
# To assess cytokine and chemokine production and degranulation, NK cells were stimulated with plate-bound anti-NK1.1 (PK136), mimicking their activation in metastasis. Human NK cells were activated by incubation with the human […] cell line K562. For analysis of cytokine and chemokine production, Brefeldin A was added 1 h after stimulation to block intracellular protein transport processes. 3 h later, cells were stained for flow cytometric analysis. For analysis of degranulation, stimulation was done in presence of anti-LAMP-1 antibody, and Monensin was added 1 h later to prevent acidification of endolytic vesicles.
# To assess the production of cytokines in cell culture supernatants, NK cells were stimulated for 16 h and cell-free supernatants were harvested and stored at −20° C. until further use. Cytokine concentrations in the culture supernatants were measured by enzyme-linked immunosorbent assays (ELISA) or a multiplex cytokine assay (Bio-Plex Pro Mouse Cytokine 23-plex).
# human NK cells = test: Human NK cell cytokine production upon stimulation with K562 (flow cytometry); assay type: cell-based; conditions: PGE2 16 h
# Description: (§4) Human NK cells and CD8+ T cells were isolated from blood of healthy, voluntary donors after they gave written and informed consent. Blood was mixed with PBS and loaded on Pancoll to isolate peripheral blood mononuclear cells (PBMCs) through centrifugation. NK cells were then isolated by negative selection using the Untouched Human NK Cell Isolation Kit (ThermoFisher). CD8+ T cells were then isolated by negative selection using the Untouched Human CD8+ T Cell Isolation Kit (Miltenyi).
# as §2, with “C.” for “C. For the RNA and ATAC sequencing approach, NK cells were only pre-treated for 1 h with PGE2 and then stimulated (as described below) for further 4 h.”
# as §3
# mouse CD8^+ T cells = test: Mouse CD8^+ T cell expansion after anti-CD3/CD28+IL-12 stimulation; assay type: cell-based; conditions: PGE2 16 h, expansion 72 h later
# Protocol: For the isolation of mouse CD8^+ T cells, the spleen was excised from mice and passed through a steel sieve. Red blood cells were lysed by incubating the cells with ammonium chloride potassium buffer for 2 min. Following filtration through a 70 μm cell strainer, CD8^+ T cells were purified by immunomagnetic separation using anti-CD8 microbeads. After isolation, CD8^+ T cells were cultured with low dose IL2 and CD3/CD28 stimulatory beads to generate effector-like CD8+ T cells for in vitro assays.
# as §2, with “C.” for “C. For the RNA and ATAC sequencing approach, NK cells were only pre-treated for 1 h with PGE2 and then stimulated (as described below) for further 4 h.”
# (§5) To assess T cell differentiation and expansion, CD8^+ T cells were stimulated with anti-CD3/CD28 microbeads plus Interleukin-12 (10 ng/ml), mimicking their activation in metastasis or tumor tissue, and cell numbers were quantified 72 h later by flow cytometry.
# human CD8^+ T cells = test: Human CD8^+ T cell expansion after anti-CD3/CD28+IL-12 stimulation; assay type: cell-based; conditions: PGE2 16 h, expansion 72 h later
# Description: as §4
# Murine or human NK cells or CD8^+ T cells were treated with 1-100 ng/ml synthetic PGE2 or medium as control for 16 h at 37° C. For experiments with tumor factors (TF), cells were incubated in a 1:1 mixture of complete RPMI medium with TF-containing conditioned medium from cancer cells. For the inhibitor studies, cells were first incubated with single EP receptor inhibitors (EP1-EP4) or inhibitor combinations at a concentration of 5 μM for 30 min, before adding 100 ng/ml PGE2 for 16 h at 37° C. For the RNA and ATAC sequencing approach, NK cells were only pre-treated for 1 h with PGE2 and then stimulated (as described below) for further 4 h.
# as §5
# [4] = anti-NK1.1 stimulation in presence of PGE2
structure (smiles),measurement,setting,value
"CCCCC[C@H](O)/C=C/[C@H]1[C@H](O)CC(=O)[C@@H]1C/C=C\CCCC(=O)O [PGE2, prostaglandin E2]",degranulation (LAMP-1 staining) of NK cells,NK cells [1],only slightly reduced
same,granzyme B levels in NK cells,NK cells [2],unaffected
same,NK cell mediated killing of tumor cells,BRAF^V600E tumor cells,effectively eliminate the tumor cells
same,XCL1 secretion after transient PGE2 treatment,"NK cells [3]; PGE2 24 h, then removed for 24 h before anti-NK1.1 stimulation",strong inhibitory effects
same,IFNγ release by NK cells,NK cells [3]; [4],markedly reduced in a dose-dependent manner
same,XCL1 release by NK cells,NK cells [3]; [4],markedly reduced in a dose-dependent manner
same,"secretion of other effector cytokines, chemokines and growth factors by NK cells","NK cells [3]; upon stimulation, multiplex assay",diminished the secretion
same,"cytokine and chemokine production (IFNγ, TNF, XCL1) by human NK cells",human NK cells,impaired the cytokine and chemokine production
same,expansion of mouse CD8^+ T cells upon stimulation,mouse CD8^+ T cells,strongly impaired
same,expansion of human CD8^+ T cells upon stimulation,human CD8^+ T cells,Identical findings

# Source: patent US20250161446A1, “MODIFIED IMMUNE CELLS FOR TREATING AND/OR PREVENTING METASTASIS” (TECHNISCHE UNIVERSITÄT MÜNCHEN, priority 2022, published 2025)
